Measurements from patent US20230129651A1, “HAIRPIN STRUCTURE NUCLEIC ACID MOLECULES CAPABLE OF MODULATING TARGET GENE EXPRESSION AND USES THEREOF” (KOREA ADVANCED INSTITUTE OF SCIENCE AND TECHNOLOGY, priority 2021, published 2023).
“Also recorded” adds a separate entry of the source. {Cy5.5} = Cy5.5 fluorophore label

How the values were obtained:
miR-155 = miR-155 expression in FLT3-ITD mutated AML cell line after treatment with AML therapeutic agents; assay type: cell-based; details: NOLM-14; IC50 dose, 37° C., 72 hours
Description: The FLT3-ITD mutated AML cell line (NOLM-14) was treated with an IC50 dose of cytarabine, azacitidine, decitabine, venetoclax, or gilteritinib, which is used as standard therapeutic agents for AML, at 37° C. for 72 hours, followed by measuring expression levels of miR-155.

Hela-141 cells = test: Cell viability / apoptosis of Hela-141 cells after transfection; assay type: cell-based
Description: (§1) The miRNA triggers were assayed for cytotoxicity and apoptosis induction, using the CCK-8 (Cell Counting Kit-8) (Dojindo, Kumamoto, Japan) according to the manufacturer's instruction. Cells were incubated in 96-well plates (5×10^3 cells/well) at 37° C. for 24 hours under a 5% CO2 atmosphere, followed by transfection. Three days after transfection, the medium was removed. A 10-fold dilution of CCK-8 solution in DMEM was added to the cells which were then incubated at 37° C. for 2 hours. After incubation, absorbance was read at 450 nm on Tecan Infinite M200 pro microplate reader (Mnnedorf, Switzerland).
(§2) The linear miRNA triggers or siRNAs (siLuc and siMcl-1) prepared above were transfected into Hela, Hela-141, and Hela-200c cells which were then measured for cell viability. The results are depicted in FIG. 15.
(§3) The hairpin miRNA triggers prepared above were transfected into Hela and Hela-141 cells which were then assayed for apoptosis. As a control, the siRNA (siMcl-1; Table 14) which can repress the expression of mcl-1 was transfected to Hela and Hela-141 cells and measured for apoptotic activity.

Hela-200c cells = test: Cell viability / apoptosis of Hela-200c cells after transfection; assay type: cell-based
Description: as §1, §2

Mcl-1 protein = test: Western blotting of Mcl-1 protein in Hela-141 cells; assay type: cell-based; details: 5 to 120 nM
Description: (§4) miRNA triggers were transfected into cells in the same manner as in Reference Example 4. After 72 hours, the cells were collected using a cell scraper and lysed with a RIPA buffer (NaCl 150 mM, EDTA 5 mM, Tris 50 mM, NP-40 1.0%, sodium deoxycholate 0.5%, SDS 0.1%). The cell lysate was sonicated 15 times, each for 20 sec, with a halt for 30 sec every sonication. Following centrifugation at 5,000 g for 5 min, the supernatant was taken and used to extract proteins therefrom. A total of 30-40 μg of protein sample was separated in 10-15% SDS-PAGE gel and transferred onto a PVDF membrane through a semi-dry blotting system. The membrane was blocked for 1 hour in 5% skimmed milk and incubated for 2 hours with a 1,000-fold dilution of a primary antibody in, 1% skimmed milk. […] The membrane incubated with the secondary antibody was washed three times with 1×PBST for 10 min each wash, and then reacted with Clarity Western ECL Substrate (#1705061, Bio-Rad), after which images were obtained and analyzed using ChemiDoc (Bio-rad, Hercules, USA).
A linear miRNA trigger (Mcl-1-141-141; Table 15) that could bind to miR-141 and target mcl-1 was prepared while a linear miRNA trigger (Luc-141-141; Table 9) that could bind to miR-141 and target Luc (luciferase) was used as a control. […] Then, proteins were extracted from the Hela-141 cells and quantitatively analyzed for Mcl-1 protein level by western blotting. […]

[1] = system: FLT3 mutated AML cell line MV4-11; test: Cell viability of MV4-11 after transfection; assay type: cell-based
Description: as §1
A linear miRNA trigger (Mcl-1_155_155 or Bcl-2_155_155) which could bind to miR-155 and target mcl-1 or bcl-2 gene was prepared and transfected into the FLT3 mutated AML cell line MV4-11 which was then measured for cell viability. The results are depicted in FIGS. 31a and 31b. Sequences are listed in Tables 19 and 21 for the linear miRNA triggers prepared above, and in Tables 18 and 19 for the controls Luc-Luc-Luc and luc-155-155, respectively. Every nucleotide of the triggers and the controls were chemically modified with 2′-OMe.

cleaved PARP = test: Western blotting of apoptotic marker in HL-60 after siRNA knockdown; assay type: cell-based; details: HL-60 cells
Description: as §4, with “USA). […]” for “USA).”

Hela cells = test: Cell viability / apoptosis of Hela cells after transfection; assay type: cell-based
Description: as §1, §2, §3

[2] = system: MCF-7 breast cancer cells; test: Cell viability of MCF-7 after transfection; assay type: cell-based; details: siRNA 60 nM
Description: as §1
An siRNA targeting bcl-2, bcl-xL, or mcl-1 was transfected into MCF-7 breast cancer cells and PANC-1 pancreatic cancer cells. By using qRT-PCR, establishment was made of a condition under which the expression of each target gene is decreased by 80% or more (transfection was performed at a concentration of 60 nM with the aid of Lipofectamine). […] Under the same condition of decreasing the expression of each target gene by 80% or more, the cells transfected with the siRNAs were measured for apoptosis, and the results are depicted in FIGS. 14a and 14b.
Linear miRNA triggers that could bind to miR-141 or let7f and target bcl-xL or mcl-1 were prepared and transfected alone or in combination into the breast cancer cell line MCF-7 which was then measured for cell viability. […]

[3] = In vivo imaging after tail vein injection of Cy5.5-labeled miRNA trigger; design: species or system C57BL/6 (B6) mice
Description: As a negative control, PBS was injected at a dose of 200 μl into mice.
Days 1, 2, and 4 after miRNA trigger injection, in vivo imaging was performed using IVIS 100 (PerkinElmer).

[4] = FACS detection of Cy5.5 in hematopoietic origin cells of injected mice; assay type: in vivo, C57BL/6 (B6) mice
From the text: Day 4 after miRNA trigger injection in Example 6-2, mice in the miRNA trigger-administered test group (N=4) and the PBS-administered control (N=4) were sacrificed and specimens (blood cells) were taken from peripheral blood vessels, the spleen, and the bone marrow (femur blood cells). Erythrocytes were removed using an RBC lysis buffer.
The cells in peripheral blood sample were gated through three steps (step 1: debris removal, step 2: selection of single blood cell population, step 3: Cy5.5 detection) to select single blood cells of quality. Through FACS, blood cells retaining Cy5.5 were identified. The results are depicted in FIGS. 20a to 20c.
Spleen-derived hematopoietic cells and bone marrow hematopoietic cells of mice were gated in the foregoing manner and Cy5.5 was detected. The results are depicted in FIGS. 21 and 22. As shown in FIGS. 21a to 21c, 8.7-13.7% of total spleen-derived hematopoietic cells expressed Cy5.5. As in peripheral blood cells, Cy5.5 was detected mainly in lymphocytes and monocytes of the spleen-derived hematopoietic cells.

[5] = system: MOLM-14, MV4-11 and Hela cells; test: Fluorescence detection after transfection of Cy5.5-labeled miRNA trigger into cells (IVIS 100); assay type: cell-based; details: Lipofectamine
Description: With the aid of Lipofectamine, the linear miRNA trigger (5′-Cy5.5-miR-155-miR-155-PKR-3′) was transfected into the FLT3-ITD mutant AML cell lines MOLM-14 and MV4-11 and the solid cancer cell line Hela. […] Subsequent animal tests were performed with the trigger.

## Nc1ccn([C@@H]2O[C@H](CO)[C@@H](O)[C@@H]2O)c(=O)n1 [cytarabine]
miR-155
  miR-155 expression: did not repress miR-155 express

## Mcl-1_141_141: linear miRNA trigger binding miR-141 and targeting Mcl-1 gene; SEQ ID NO 65 (110 in Table 24) (CCAUCUUUACCUCACAGUGUUACCAUCUUUACCUCACAGUGUUACCGAACUACGUAGC; all 2'-O-methyl, backbone not given here)
Hela-141 cells
  apoptosis induced: about 40%
Hela-200c cells
  apoptosis / cell viability (in words): no significant influence on cell viability
Mcl-1 protein
  Mcl-1 protein level compared to control Luc-141-141: significantly decreased in Mcl-1 protein level

## Mcl-1_155_155: linear miRNA trigger binding miR-155 and targeting mcl-1; SEQ ID NO 105 (UUAUGUUUCAGGUUCAGGGGGAUUAUGUUUCAGGUUCAGGGGGACCGAACUACGUAGC; all 2'-O-methyl, backbone not given here)
[1]
  apoptosis (cell viability): induce MV4-11 to undergo apoptosis

## siBcl-2: siRNA targeting bcl-2; SEQ ID NO 62 (AUCAAUCUUCAGCACUCUC; listed as RNA, chemistry not given here)
Cleaved PARP
  expression of apoptotic marker cleaved PARP: upregulated

## siMcl-1: siRNA targeting mcl-1; SEQ ID NO 64 (AAAUUCGAUACUUCCUUCG; listed as RNA, chemistry not given here) [reference compound]
Hela-141 cells
  apoptosis / cell viability (in words): induced apoptosis; also recorded: brought about an apoptotic effect
Hela cells
  apoptosis / cell viability (in words): induced apoptosis; also recorded: brought about an apoptotic effect
Hela-200c cells
  apoptosis / cell viability (in words): induced apoptosis
[2]
  cell viability / apoptosis after siRNA (in words): decreased in cell viability

B1: Cy5.5_PKR-155_155: linear miRNA trigger binding miR-155 and targeting PKR, labeled with Cy5.5 fluorophore; SEQ ID NO 69 (nucleic acid)
chain: UUAUGUUUCAGGUUCAGGGGGAUUAUGUUUCCAGGUUCAGGGGGAUAUGUGAGGCAGAGAACGA
modifications: all 2'-O-methyl, 5' {Cy5.5}, backbone not given here
[3]
  time Cy5.5 fluorescence detected in the mouse body: ≥ 4 days
  toxicity over the period of in vivo imaging: particular toxicity was detected from none of the mice
[3]; Invivofectamine, 120 nM, days 1, 2 and 4
  organs in which Cy5.5 was detected: detected in main organs including the liver, the spleen, the bone marrow, and the heart, and the hematopoietic organ
[4]; bone marrow, day 4
  rate of bone marrow cells expressing Cy5.5: 1.0-2.0%
[4]; bone marrow, lymphocytes gated through 4 steps, day 4
  Cy5.5 detected in gated lymphocytes: 5.4-9.6%
[4]; day 4 after injection
  Cy5.5 detection in blood cells (FACS profile): detected in blood cells, especially lymphocytes and monocytes
[4]; peripheral blood, day 4
  rate of Cy5.5 detection based on total number of single blood cells: 6.2-15.9%
[4]; spleen, day 4
  spleen-derived hematopoietic cells expressing Cy5.5: 8.7-13.7%
[5]
  fluorescence in transfected cells: Fluorescence was detected
